The record followed here is ChEMBL document CHEMBL1201862, “PubChem BioAssay data set” (2004).

Common to all, as to test: NCI anticancer screen, dose series, 48 h
In experiment [1] the test system is A498.
Experiment [2] has as its system ACHN.
Experiment [3] has as its system CCRF-CEM.
The test system of experiment [4] is COLO 205.
For experiment [5], the system named is DU-145.
In experiment [6] the test system is HCT-15.
Experiment [7] relates to HOP-62.
The subject of experiment [8] is Hs-578T.
Experiment [9] deals with K562.
The subject of experiment [10] is KM12.
In experiment [11] the test system is M14.
The subject of experiment [12] is MDA-MB-231.
In experiment [13] the test system is NCI-H226.
For experiment [14], the system named is NCI-H460.
Experiment [15] concerns OVCAR-5.
Experiment [16] has as its system SF-268.
In experiment [17] the test system is T47D.
Experiment [18] has as its system TK-10.
Experiment [19] deals with UACC-62.
For experiment [20], the system named is MDA-N.

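1) Cells in 96-well plates. 2) Compound, 48 h, 5 concentrations. 3) Linear interpolation between surrounding doses. 4) Unreached endpoint = highest concentration. At the GI50, growth is halved.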 Activity calls are given as the source filed them. No stated cut-off is given here; in the data, active = GI50 up to about 1.1 µM and inactive = higher. Where only a bound is given, the exact number is not on record here.

`CC(C)(C)C1=NN=C2c3ccccc3C(=O)C21` (stereo not given): the GI50 in [1] is 21.3 µM (inactive); in experiment [2] it was 43.1 µM (inactive); in experiment [3], 63.2 µM (inactive); in [4], 37.8 µM (inactive); in experiment [5] it was 31.3 µM (inactive); in experiment [6] it was 29.4 µM. Moreover, the GI50 is > 100 µM (inactive) in [7]; 20.7 µM (inactive) in experiment [8]; 35.2 µM (inactive) in [9]; 18.9 µM (inactive) in experiment [10]; 76.6 µM (inactive) in experiment [11]; 40.4 µM (inactive) in experiment [12]. In addition, the GI50 is 41.7 µM (inactive) in [13]; 43.9 µM (inactive) in experiment [14]; 51.8 µM (inactive) in experiment [15]; 58.9 µM (inactive) in [16]; > 100 µM (inactive) in [17]; 53 µM (inactive) in [18]. The GI50 in [19] was 27.4 µM (inactive).

In the case of `CC(C)(Br)C(Br)CCC1(C(Br)CBr)CO1` (stereo not given), the GI50 in experiment [1], in experiment [2], in [3], in experiment [4], in experiment [5] and in [7] was > 10 µM (inactive) each time. The GI50 in experiment [9], in experiment [10], in experiment [11], in experiment [12], in experiment [20] and in experiment [13] was > 10 µM (inactive) throughout. The GI50 in [15], in experiment [16], in experiment [17], in experiment [18] and in experiment [19] was > 10 µM (inactive) each time.

Turning to `O=c1[nH]c(=O)n(C2CC(O)C(CO)O2)cc1OCCc1ccccc1` (stereo not given), the GI50 is > 100 µM (inactive) in experiment [2]; > 100 µM (inactive) in [3]; > 100 µM (inactive) in experiment [4]; > 100 µM (inactive) in experiment [5]; more than 100 µM in [6]; > 100 µM (inactive) in [7]. Moreover, the GI50 in [8], in [9], in experiment [10], in experiment [11], in experiment [12] and in experiment [20] was > 100 µM (inactive) each time. Moreover, the GI50 is > 100 µM (inactive) in [13]; > 10 µM (inactive) in [14]; > 100 µM (inactive) in [15]; > 100 µM (inactive) in [16]; > 100 µM (inactive) in experiment [17]; > 100 µM (inactive) in [18]. For the same compound, the GI50 in [19] was > 100 µM (inactive).

For the compound `CC(=O)OC[C@@]12CC[C@H]3C(C)(C)CCC[C@]3(C)[C@H]1C[C@@H](C1=CC(=O)O[C@H]1O)O2`, the GI50 in [2] was 2.54 µM (inactive); in [3], 1.24 µM (inactive); in experiment [4], 3.81 µM (inactive); in experiment [5], 7.29 µM (inactive); in experiment [6] it was 2.05 µM; in experiment [7], 10.4 µM (inactive). In addition, the GI50 in [8] was 4.9 µM (inactive); in experiment [9], 1.48 µM (inactive); in experiment [10], 6.75 µM (inactive); in experiment [11] it was 2.45 µM (inactive); in [20] it was 2.24 µM (inactive); in [14], 8.69 µM (inactive). Moreover, the GI50 in [15] is 19.7 µM (inactive); in experiment [16], 10.4 µM (inactive); in experiment [17], 2.59 µM (inactive); in experiment [18], 3.94 µM (inactive); in experiment [19] it was 1.94 µM (inactive).

Regarding `N#Cc1cc(C#N)c(Cl)nc1N`, the GI50 in [2] was > 10 µM (inactive); in [3] it was > 10 µM (inactive); in [4], > 10 µM (inactive); in experiment [6], more than 10 µM; in experiment [7], > 10 µM (inactive); in [8] it was > 10 µM (inactive). The GI50 in experiment [9] was 7.53 µM (inactive); in experiment [10], > 10 µM (inactive); in experiment [20], > 10 µM (inactive); in [13], > 10 µM (inactive); in [14], > 10 µM (inactive); in [16], > 10 µM (inactive). The GI50 in experiment [17], in experiment [18] and in experiment [19] was > 10 µM (inactive) throughout.

As for `COc1ccc(N[S+]([O-])c2ccc(Cl)cc2)cc1` (stereo not given), the GI50 in experiment [2] is 91 µM (inactive); in [3], 50.5 µM (inactive); in [4], > 100 µM (inactive); in experiment [5], 43.5 µM (inactive); in [6], 19.5 µM; in [7], 61.7 µM (inactive). Further, the GI50 was 23.1 µM (inactive) in experiment [8]; 34.4 µM (inactive) in [9]; 7.31 µM (inactive) in experiment [10]; 94 µM (inactive) in experiment [11]; 50.4 µM (inactive) in experiment [12]; 28.3 µM (inactive) in [20]. Further, the GI50 in [13] was 19.5 µM (inactive); in [14] it was 24.3 µM (inactive); in experiment [16], 4 µM (inactive); in experiment [17], 10.1 µM (inactive); in experiment [18], > 100 µM (inactive); in experiment [19], 8.43 µM (inactive).

For `CC(=O)n1[nH]c(=O)n(-c2ccccc2)c1=O`, the GI50 is > 100 µM (inactive) in [2]; > 100 µM (inactive) in experiment [3]; > 100 µM (inactive) in experiment [4]; > 100 µM (inactive) in experiment [5]; more than 100 µM in experiment [6]; > 100 µM (inactive) in experiment [7]. In addition, the GI50 in experiment [8], in experiment [9], in [10], in experiment [11], in experiment [12] and in experiment [20] was > 100 µM (inactive) in each case. The GI50 in experiment [13], in experiment [14], in experiment [15], in [16], in experiment [17] and in experiment [18] was > 100 µM (inactive) in each case. Further, the GI50 in [19] is > 100 µM (inactive).

Consider `N#C/C(C(=O)Nc1ccc(Cl)cc1)=C(/N)N1CCCCC1`, for which the GI50 was > 100 µM (inactive) in experiment [1]; > 100 µM (inactive) in [2]; > 100 µM (inactive) in experiment [3]; > 100 µM (inactive) in [4]; > 100 µM (inactive) in experiment [5]; more than 100 µM in [6]. Further, the GI50 in experiment [7] was 41.3 µM (inactive); in experiment [9], > 100 µM (inactive); in experiment [10], > 100 µM (inactive); in [11] it was 85.1 µM (inactive); in experiment [20], > 100 µM (inactive); in experiment [13], 92.3 µM (inactive). Besides, the GI50 in experiment [14] was > 100 µM (inactive); in experiment [15], > 100 µM (inactive); in experiment [17], > 100 µM (inactive); in experiment [19], 42.5 µM (inactive).

As to `COc1ccc(N[S+]([O-])CCCc2ccccc2)cc1` (stereo not given), the GI50 was > 100 µM (inactive) in experiment [2]; > 100 µM (inactive) in [3]; > 100 µM (inactive) in [4]; > 100 µM (inactive) in experiment [5]; 64 µM in [6]; > 100 µM (inactive) in experiment [7]. Besides, the GI50 is > 100 µM (inactive) in experiment [8]; 75.5 µM (inactive) in experiment [9]; 34.8 µM (inactive) in [10]; > 100 µM (inactive) in experiment [12]; > 100 µM (inactive) in experiment [20]; > 100 µM (inactive) in [13]. Also, the GI50 was > 100 µM (inactive) in [14]; > 100 µM (inactive) in experiment [15]; > 100 µM (inactive) in experiment [16]; 14.7 µM (inactive) in experiment [17]; > 100 µM (inactive) in [18]; 44.9 µM (inactive) in [19].

`Cc1ccc(S(=O)(=O)NNCNC(=O)c2ccccc2)cc1`: the GI50 in experiment [2] is > 100 µM (inactive); in [3] it was 17.6 µM (inactive); in experiment [4] it was > 100 µM (inactive); in [5] it was > 100 µM (inactive); in experiment [6], 70.8 µM; in experiment [7] it was > 100 µM (inactive). Also, the GI50 is > 100 µM (inactive) in [8]; 64.4 µM (inactive) in experiment [9]; 85.1 µM (inactive) in [10]; > 100 µM (inactive) in experiment [11]; > 100 µM (inactive) in [12]; 33.9 µM (inactive) in experiment [20]. For the same compound, the GI50 in experiment [13] was > 100 µM (inactive); in experiment [15] it was > 100 µM (inactive); in experiment [16] it was > 100 µM (inactive); in experiment [17], 83.4 µM (inactive); in [18], > 100 µM (inactive); in [19], 71.6 µM (inactive).

With `Cc1cc2ccccc2n2c1nc1ccccc12`, the GI50 was 15.2 µM (inactive) in experiment [1]; > 100 µM (inactive) in [2]; > 100 µM (inactive) in experiment [3]; > 100 µM (inactive) in [4]; > 100 µM (inactive) in experiment [5]; more than 100 µM in experiment [6]. In addition, the GI50 in [7], in [8], in experiment [9], in experiment [10], in experiment [11] and in [20] was > 100 µM (inactive) throughout. Moreover, the GI50 in experiment [13], in experiment [14], in experiment [15], in experiment [16], in experiment [17] and in experiment [18] was > 100 µM (inactive) in each case. Also, the GI50 in experiment [19] is > 100 µM (inactive).
